From patent US12336991B2, “Factor XIIA inhibitors” (UNIVERSITY OF LEEDS, priority 2018, dated 2025)

Experiments:
Format in all cases: biochemical
FXIIa = molecular target: T1, FXIIa (Homo sapiens, UniProt P00748); test: Determination of Factor XIIa inhibition, chromogenic substrate S-2302 assay; details: human FXIIa alpha
T1 sequence (P00748 373-615 limits assumed): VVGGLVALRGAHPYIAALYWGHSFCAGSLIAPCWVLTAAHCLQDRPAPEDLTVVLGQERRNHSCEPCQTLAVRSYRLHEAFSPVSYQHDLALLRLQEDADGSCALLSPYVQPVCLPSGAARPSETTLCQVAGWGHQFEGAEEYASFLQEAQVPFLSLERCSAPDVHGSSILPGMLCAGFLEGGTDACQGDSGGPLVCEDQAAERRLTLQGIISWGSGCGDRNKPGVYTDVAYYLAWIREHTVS
T1 sequence (P00748 20-372 partner limits assumed): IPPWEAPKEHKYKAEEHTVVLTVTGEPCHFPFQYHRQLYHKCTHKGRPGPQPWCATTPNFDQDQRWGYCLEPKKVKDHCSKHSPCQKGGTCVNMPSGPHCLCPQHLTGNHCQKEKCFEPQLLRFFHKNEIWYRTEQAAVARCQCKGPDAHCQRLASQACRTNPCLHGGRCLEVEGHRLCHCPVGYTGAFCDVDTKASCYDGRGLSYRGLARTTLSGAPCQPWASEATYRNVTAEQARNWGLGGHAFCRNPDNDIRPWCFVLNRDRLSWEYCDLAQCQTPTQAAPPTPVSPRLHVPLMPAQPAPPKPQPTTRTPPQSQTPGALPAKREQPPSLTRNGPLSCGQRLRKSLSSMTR
Procedure: (§1) The activities of the compounds of the invention have been determined in vitro using the following assays protocols for the screening of activity of FXIIa and other proteases. Each of these assays were performed in a purified system employing the use of chromogenic assays in microplate plate wells. Chromogenic peptide substrates mimicking natural protein substrates are attached via an amide bond to a chromogenic group. Paranitroaniline (pNA) is released from the peptide following catalyses by the proteolytic enzyme; the absorbance increases and can be monitored at 405 nm.
(§2) All compounds were dissolved in 100% (v/v) DMSO to a stock concentration of 10 mM, the highest concentration of compound used in each assay is 500 μM. The final concentrations of DMSO were 5% (v/v) in 50 mM Tris 137 mM NaC pH 7.4. Where no test compound was added a final concentration of 5% DMSO was employed.
Determination of Factor XIa Inhibition
Factor XIa activity was measured using a chromogenic substrate S-2302 (Chromogenix). Various concentrations of compound were incubated with 10 nM of FXIIa and incubated at 37° C. for 10 minutes in 50 mM Tris, 137 mM NaCl, pH 7.4, prior to the addition of a final concentration of 450 µM S-2302 chromogenic substrate. Kinetic readings at 405 nm were monitored every 12 secs for a total duration of 3 hours at 37° C. Gradients of initial rates were determined and employed to calculate IC50 values. Values of IC50 were converted to Ki values based on the formula: Ki=IC50/(1+[Substrate]/Km).
The activity of the compounds of the invention has been categorised based on the Ki values, the categories being “*”, “**” and “***”. […] The category “**” refers to compounds with a Ki value of 0.2 μM to 2 μM.

FXa = FXa (Homo sapiens, UniProt P00742); test: Determination of selectivity: FXa inhibition, chromogenic substrate S2765 assay; details: fold selectivity for FXIIa over FXa
Procedure: as §1, §2
(§3) Determination of Selectivity
(§4) To determine selectivity of test compounds, these test compounds were assayed for inhibitory activity against other serine proteases including FXa and thrombin. Essentially compounds at increasing concentrations were incubated with each enzyme: FXa (5 nM) and thrombin (5 nM), for 10 mins at 37° C. followed the appropriate chromogenic substrate, S2765 ([…]), and GPR ([…]) respectively in 50 mM Tris, 137 mM NaCl, pH 7.4. Chromogenic substrates S2765 was from Chromogenix, and GPR from Bachem. Kinetic readings at 405 nm were monitored every 12 secs for a total duration of 3 hours at 37° C. Gradients of initial rates were determined and employed to calculate IC50 values. Values of IC50 were converted to Ki values based on the formula: Ki=IC50/(1+[Substrate]/Km)
(§5) Where [Substrate] denotes the concentration of substrate used in the assay and Km is the determined value of each enzyme with its own substrate.
(§6) The fold selectivity for FXIIa over thrombin for the compounds of the invention has been categorised based on the fold selectivity values, the categories being “+”, “++” and “+++”. The category “+” refers to fold selectivity values less than 10. The category “++” refers to a fold selectivity value of 10 to 100. The category “+++” refers to fold selectivity values greater than 100.
The fold selectivity for FXIIa over FXa for the compounds of the invention has been categorised based on the fold selectivity values, the categories being “o”, “oo” and “ooo”. The category “o” refers to fold selectivity values less than 10. The category “oo” refers to a fold selectivity value of 10 to 100. The category “ooo” refers to fold selectivity values greater than 100.

thrombin = molecular target: T2, thrombin (Homo sapiens, UniProt P00734); test: Determination of selectivity: thrombin inhibition, chromogenic substrate GPR assay; details: fold selectivity for FXIIa over thrombin
T2 construct: FXa (5 nM) and thrombin (5 nM)
Procedure: as §1, §2, §3, §4, §5, §6

Chain of FXa (P00742 235-488 limits assumed): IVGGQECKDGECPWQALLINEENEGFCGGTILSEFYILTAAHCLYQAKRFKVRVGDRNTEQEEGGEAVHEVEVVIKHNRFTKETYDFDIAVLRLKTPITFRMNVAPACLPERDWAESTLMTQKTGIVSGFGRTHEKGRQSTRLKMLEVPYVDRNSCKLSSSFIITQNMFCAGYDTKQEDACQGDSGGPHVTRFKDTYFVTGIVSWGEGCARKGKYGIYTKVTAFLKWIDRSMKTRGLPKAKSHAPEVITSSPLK
Chain of FXa (P00742 41-179 partner limits assumed): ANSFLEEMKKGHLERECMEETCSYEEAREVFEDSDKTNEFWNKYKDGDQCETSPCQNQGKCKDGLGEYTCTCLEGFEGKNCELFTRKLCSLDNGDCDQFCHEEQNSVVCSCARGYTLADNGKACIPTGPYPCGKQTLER

Row | Structure (SMILES) | Ki (FXIIa) [µM] | FXa (human)/FXIIa alpha (human) (FXa) | Thrombin (human)/FXIIa alpha (human) (thrombin)
1 | Cn1nnc2cc(CNC(=O)[C@@H]3C[C@H](c4ccccc4)CN3C(=O)[C@H](N)CCc3ccccc3)ccc21 [Example M05163] | > 2 | ∘∘ | ++ (fold selectivity value of 10 to 100)
2 | COc1ccc(C[C@@H]2C[C@@H](C(=O)NCc3ccc4c(c3)nnn4C)N(C(=O)[C@H]3CC(c4cnccc4OC)CN3)C2)cc1 (stereo partly drawn) [Example M05410] | > 2 | ∘∘ | + (fold selectivity values less than 10)
3 | COc1ccc(C[C@@H]2C[C@@H](C(=O)NCc3cc4cnccc4[nH]3)N(C(=O)[C@H]3C[C@@H](N4CCCCC4)CN3)C2)cc1 [Example M00964] | < 0.2 | ∘∘∘ | +++ (fold selectivity values greater than 100)
4 | COc1ccc(C[C@@H]2C[C@@H](C(=O)NCc3ccc4c(c3)c(C)nn4C)N(C(=O)[C@H](N)CCC(=O)N3CCCC3)C2)cc1 [Example M05447] | 0.2 to 2 | ∘∘∘ | +++ (fold selectivity values greater than 100)
5 | Cc1nn(C)c2ccc(CNC(=O)[C@@H]3C[C@@H](Cc4ccncc4)CN3C(=O)[C@H](N)CCC(=O)N3CCCC3)cc12 [Example M05278] | 0.2 to 2 | ∘∘∘ | ++ (fold selectivity value of 10 to 100)
6 | NCc1ccc(CNC(=O)[C@@H]2C[C@@H](Cc3ccc(Cl)cc3)CN2C(=O)[C@H](N)CCc2ccccc2)cc1 [Example M05117] | 0.2 to 2 | ∘∘∘ | ++ (fold selectivity value of 10 to 100)
7 | Cn1cc(-c2ccc(C[C@@H]3C[C@@H](C(=O)NCc4ccc5c(c4)nnn5C)N(C(=O)[C@H](N)CCC(=O)N4CCCC4)C3)cc2)cn1 [Example M05341] | 0.2 to 2 | ∘∘∘ | +++ (fold selectivity values greater than 100)
8 | COc1ccc(C[C@@H]2C[C@@H](C(=O)NCc3ccc4c(c3)nnn4C)N(C(=O)[C@H]3CC(c4ccccc4C(F)(F)F)CN3)C2)cc1 (stereo partly drawn) [Example M05397] | 0.2 to 2 | ∘∘∘ | +++ (fold selectivity values greater than 100)
9 | Cn1nnc2cc(CNC(=O)[C@@H]3CC(Cc4cccc(C#N)c4)CN3C(=O)[C@H](N)CCC(=O)N3CCCC3)ccc21 (stereo partly drawn) [Example M05319] | 0.2 to 2 | ∘∘∘ | +++ (fold selectivity values greater than 100)
10 | COc1cc(CNC(=O)[C@@H]2C[C@@H](C)CN2C(=O)[C@H](N)CCc2ccccc2)ccc1CN [Example M05074] | 0.2 to 2 | ∘∘∘ | + (fold selectivity values less than 10)
11 | Cn1nnc2cc(CNC(=O)[C@@H]3CC(Cc4ccc(C#N)cc4)CN3C(=O)[C@H](N)CCC(=O)N3CCCC3)ccc21 (stereo partly drawn) [Example M05312] | 0.2 to 2 | ∘∘∘ | +++ (fold selectivity values greater than 100)
12 | Cn1nnc2cc(CNC(=O)[C@@H]3C[C@@H](c4ccccc4)CN3C(=O)[C@H](N)CCC(=O)N3CCCC3)ccc21 [Example M05155] | 0.2 to 2 | ∘∘∘ | +++ (fold selectivity values greater than 100)
13 | COc1ccc(C[C@@H]2C[C@@H](C(=O)NCc3ccc4c(c3)nnn4C)N(C(=O)[C@H]3C[C@@H](c4cnn(C)c4)CN3)C2)cc1 [Example M05381] | 0.2 to 2 | ∘∘∘ | +++ (fold selectivity values greater than 100)
14 | COc1ccc(C[C@@H]2C[C@@H](C(=O)NCc3cc4cnccc4[nH]3)N(C(=O)C3NCCc4cc(OC)ccc43)C2)cc1 (single isomer, unassigned) [Example M00961] | < 0.2 | ∘∘∘ | +++ (fold selectivity values greater than 100)
